Assay results published in patent US20250041460A1, “LANTHANIDE-BASED CONTRAST AGENTS HAVING IMPROVED STABILITY AND METHODS FOR THEIR PRODUCTION AND PURIFICATION” (Inventure, LLC, priority 2023, published 2025).

Assay: Metastables test: challenge with cation exchange resin (Purolite C150), UV 274 nm peak
Format: physicochemical
Source text: FIGS. 3 and 4 show the relative and absolute stability of Applicant's disclosed TSA′ Gd Product as compared to two commercially available and frequently used MRI contrast agents Dotarem® and Clariscan®. The data shown in FIGS. 3 and 4 were obtained as follows. Exposing the product to a cation retaining resin, any free gadolinium ions in the sample are retained on the resin. Since the free gadolinium ions are continually removed, the equilibrium that would normally slow the decomposition of gadolinium DOTA metastable compounds is shifted toward decomposition. […] Gadolinium DOTA complex treated with xylenol orange has a characteristic peak at 274 nm in the ultraviolet spectrum. The amount of metastable gadolinium DOTA complex in the mixture can be inferred by measuring the decrease in this peak height with an ultraviolet spectrometer.
The test procedure used to obtain the foregoing results was as follows: • 1. Expose the resin to water for 24 hours. • 2. Measure the 274 nm peak height of the sample just prior to exposure to resin. This is the initial time point. • 3. Combine one equivalent of resin with one equivalent of the sample and agitate. • 4. […]
A metastable test is used to quantify ideal twisted square antiprismatic (TSA′) locked structures (TSA′ specification is greater than 99.5%). […]
The UV spectra for the time points were acquired over a range of 250-350 nm. The absorbance for the peak at 274 nm was corrected for changes in baseline by linearly interpolating the baseline from before and after the group of peaks around 274 nm (i.e., approximately from 270 to 280 nm) and subtracting the interpolated baseline value at 274 nm from the absorbance of the 274 nm peak maximum.
For the analysis of a time course experiment, it is useful to plot the corrected absorbances of the 274 nm peak as a percentage of the corrected absorbances of the 274 nm peak at the first time point versus time. […]

[1] = after resin purification process of Example 7

CNC[C@H](O)[C@@H](O)[C@H](O)[C@H](O)CO.O=C([O-])CN1CCN(CC(=O)[O-])CCN(CC(=O)O)CCN(CC(=O)[O-])CC1.[Gd+3] [TSA′ Gd Product, gadoterate meglumine]
ideal TSA' cages [1]: 99.98% | non ideal (defective) cages [1]: 200 PPM | stability compared to Dotarem and Clariscan (FIGS. 3-5) (cation retaining resin, 274 nm peak height, up to 120 minutes): more stable
